Reference: patent publication US12122779B2, “Pyrrolo-pyridazine derivatives as muscarinic M1 receptor positive allosteric modulators” (SUVEN LIFE SCIENCES LIMITED, priority 2018, dated 2024)

How the values were obtained:
[1] = biological target: T1, recombinant human Muscarinic M1 receptor (Homo sapiens, UniProt P11229); assay: Allosteric potency EC50 for muscarinic M1 receptor, CHO pCRE-Luc reporter cell-based assay with EC20 of acetylcholine; conditions: CHO cells, luciferase activity, in presence of EC20 of acetylcholine, 4 hours
T1 sequence (P11229 1-460): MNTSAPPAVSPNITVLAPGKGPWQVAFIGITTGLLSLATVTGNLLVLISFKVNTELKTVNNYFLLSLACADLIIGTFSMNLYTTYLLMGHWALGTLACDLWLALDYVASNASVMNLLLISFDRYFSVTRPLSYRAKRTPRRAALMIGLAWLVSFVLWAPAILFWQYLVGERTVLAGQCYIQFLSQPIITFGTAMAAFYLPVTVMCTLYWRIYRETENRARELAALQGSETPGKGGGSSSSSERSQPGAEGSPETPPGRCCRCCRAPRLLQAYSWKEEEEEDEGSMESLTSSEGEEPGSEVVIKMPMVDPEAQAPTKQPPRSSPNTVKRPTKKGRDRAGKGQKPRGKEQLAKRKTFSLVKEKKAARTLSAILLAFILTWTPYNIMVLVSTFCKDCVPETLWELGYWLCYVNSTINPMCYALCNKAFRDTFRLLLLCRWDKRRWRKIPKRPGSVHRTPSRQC
Procedure: Determination of Allosteric Potency EC50 Values for Muscarinic M1 Receptor
A stable CHO cell line expressing recombinant human Muscarinic M1 receptor and pCRE-Luc reporter system was used for cell-based assay. The assay offers a non-radioactive based approach to determine binding of a compound to GPCRs. In this specific assay, the level of intracellular cyclic AMP which is modulated by activation or inhibition of the receptor is measured. The recombinant cells harbor luciferase reporter gene under the control of cyclic AMP response element.
The above cells were grown in 96 well clear bottom white plates in Hams F12 medium containing 10% fetal bovine serum (FBS). Prior to the addition of compounds or standard agonist, cells were serum starved overnight. Increasing concentrations of test compounds were added along with EC20 of acetylcholine in OptiMEM medium to the cells. The incubation was continued at 37° C. in CO2 incubator for 4 hours. Medium was removed and cells were washed with phosphate buffered saline. The cells were lysed and luciferase activity was measured in a Luminometer. Luminescence units were plotted against the compound concentrations using Graphpad software.

[2] = Rodent pharmacokinetic study; type: in vivo, Male Wistar rats; conditions: male, Wistar, plasma, rat; for bioavailability: oral 3 mg/kg vs intravenous 1 mg/kg, read-out: F (%) Bioavailability
Procedure: Rodent Pharmacokinetic Study
Male Wistar rats (260±50 grams) were used as experimental animals. Animals were housed individually in polypropylene cage. Two days prior to study, male Wistar rats were anesthetized with isoflurane for surgical placement of jugular vein catheter. Rats were randomly divided for oral (3 mg/kg) and intravenous (1 mg/kg) dosing (n=3/group) and fasted overnight before oral dosing (p.o.). However, rats allocated to intravenous dosing food and water was provided ad libitum.
At pre-determined point, blood was collected through jugular vein and replenished with an equivalent volume of normal saline. Collected blood was transferred into a labeled eppendorf tube containing 10 μL of heparin as an anticoagulant. Typically blood samples were collected at following time points: 0.08, 0.25, 0.5, 1, 2, 4, 6, 8, and 24 h post dose. Blood was centrifuged at 4000 rpm for 10 minutes. Plasma was separated and stored frozen at −80° C. until analysis. The concentrations of the test compounds were quantified in plasma by qualified LC-MS/MS method using suitable extraction technique. The test compounds were quantified in the calibration range around 1-1000 ng/mL in plasma. Study samples were analyzed using calibration samples in the batch and quality control samples spread across the batch.
Pharmacokinetic parameters Cmax, AUCt, T1/2, Clearance and Bioavailability (F) were calculated by non-compartmental model using standard non-compartmental model by using Phoenix WinNonlin 6.0.4 version Software package.

[3] = Rodent brain penetration study; type: in vivo, Male Wistar rats; conditions: male, Wistar, brain and plasma, po; rat, 3 mg/kg p.o., brain-plasma ratio; read-out: Single dose Rat Brain Penetration (Cb/Cp) at 3 mg/kg, p.o.
Procedure: Rodent Brain Penetration Study
Male Wistar rats (260±40 grams) were used as experimental animals. Three animals were housed in each cage. Animals were given water and food ad libitum throughout the experiment and maintained on a 12 h light/dark cycle.
Brain penetration was determined in discrete manner in rats. One day prior to dosing day, male Wistar rats were acclimatized and randomly grouped according to their weight. At each time point (0.50, 1 and 2 h) n=3 animals were used.
The test compounds were suitably preformulated and administered orally at (free base equivalent) 3 mg/kg. Blood samples were removed via cardiac puncture by using isoflurane anesthesia. The animals were sacrificed to collect brain tissue. Plasma was separated and brain samples were homogenized and stored frozen at −20° C. until analysis. The concentrations of the test compounds in plasma and brain were determined using LC-MS/MS method.
The test compounds were quantified in plasma and brain homogenate by qualified LC-MS/MS method using suitable extraction technique. The test compounds were quantified in the calibration range of 1-500 ng/mL in plasma and brain homogenate. Study samples were analyzed using calibration samples in the batch and quality control samples spread across the batch. Extent of brain-plasma ratio (Cb/Cp) was calculated.

SMILES: O=C(N[C@H]1CCCC[C@@H]1O)c1cc(Cc2ccc(-c3ccc(F)cc3)cc2)c2cccn2n1 (stereo in doubt) [Example 23, N-[(1S,2S)-2-Hydroxycyclohexyl] 4-[4-(4-fluorophenyl)-benzyl]-pyrrolo[1,2-b]pyridazine-2-carboxamide]
- EC50 [1]: 1020 nM

SMILES: O=C(N[C@H]1CCCC[C@@H]1O)c1cc(Cc2ccc(-c3cccnc3)cc2)c2cccn2n1 (stereo in doubt) [Example 26, N-[(1S,2S)-2-Hydroxycyclohexyl] 4-[4-(3-pyridyl)-benzyl]-pyrrolo[1,2-b]pyridazine-2-carboxamide]
- AUC(0-t) ([2]; intravenous (bolus), 1 mg/kg): 1130 ± 61 ng·h/mL
- clearance ([2]; intravenous (bolus), 1 mg/kg): 14.4 ± 1 mL/min/kg
- half-life ([2]; intravenous (bolus), 1 mg/kg): 1.8 ± 0.2 h
- bioavailability [2]: 71 ± 4%
- AUC(0-t) ([2]; oral (gavage), 3 mg/kg): 2390 ± 129 ng·h/mL
- Cmax ([2]; oral (gavage), 3 mg/kg): 762 ± 80 ng/mL
- half-life ([2]; oral (gavage), 3 mg/kg): 1.77 ± 0.07 h

SMILES: O=C(N[C@H]1CCCC[C@@H]1O)c1cc(Cc2ccc(-c3ccncc3)cc2)c2cccn2n1 (stereo in doubt) [Example 27, N-[(1S,2S)-2-Hydroxycyclohexyl] 4-[4-(4-pyridyl)-benzyl]-pyrrolo[1,2-b]pyridazine-2-carboxamide]
- AUC(0-t) ([2]; intravenous (bolus), 1 mg/kg): 687 ± 50 ng·h/mL
- clearance ([2]; intravenous (bolus), 1 mg/kg): 24 ± 1.8 mL/min/kg
- half-life ([2]; intravenous (bolus), 1 mg/kg): 1.1 ± 0.3 h
- bioavailability [2]: 49 ± 16%
- AUC(0-t) ([2]; oral (gavage), 3 mg/kg): 1000 ± 320 ng·h/mL
- Cmax ([2]; oral (gavage), 3 mg/kg): 397 ± 162 ng/mL
- half-life ([2]; oral (gavage), 3 mg/kg): 1.06 ± 0.08 h

SMILES: Cc1cncc(-c2ccc(Cc3cc(C(=O)N[C@H]4CCCC[C@@H]4O)nn4cccc34)cc2)c1 (stereo in doubt) [Example 44, N-[(1S,2S)-2-Hydroxycyclohexyl]-4-[4-(5-methylpyridin-3-yl)-benzyl]-pyrrolo[1,2-b]pyridazine-2-carboxamide]
- EC50 [1]: 96 nM
- AUC(0-t) ([2]; intravenous (bolus), 1 mg/kg): 2290 ± 121 ng·h/mL
- clearance ([2]; intravenous (bolus), 1 mg/kg): 7.1 ± 0.4 mL/min/kg
- half-life ([2]; intravenous (bolus), 1 mg/kg): 1.7 ± 0.1 h
- bioavailability [2]: 64 ± 9%
- AUC(0-t) ([2]; oral (gavage), 3 mg/kg): 4430 ± 618 ng·h/mL
- Cmax ([2]; oral (gavage), 3 mg/kg): 1440 ± 241 ng/mL
- half-life ([2]; oral (gavage), 3 mg/kg): 1.79 ± 0.37 h
- Kp [3]: 0.17 ± 0.01

SMILES: O=C(N[C@H]1CCCC[C@@H]1O)c1cc(Cc2ccc(Cl)cc2)c2cccn2n1 [Example 2, N-[(1S,2S)-2-Hydroxycyclohexyl]-4-(4-chlorobenzyl)-pyrrolo[1,2-b]pyridazine-2-carboxamide]
- EC50 [1]: 555 nM

SMILES: CC(C)(O)CNC(=O)c1cc(Cc2ccc(Cl)cc2)c2cccn2n1 [Example 3, N-[2-Hydroxy-2-methyl-propyl]-4-(4-chlorobenzyl)-pyrrolo[1,2-b]pyridazine-2-carboxamide]
- EC50 [1]: 941 nM

SMILES: O=C(N[C@H]1CCCC[C@@H]1O)c1cc(Cc2ccc(Br)cc2)c2cccn2n1 [Example 5, N-[(1S,2S)-2-Hydroxycyclohexyl]-4-(4-bromobenzyl)-pyrrolo[1,2-b]pyridazine-2-carboxamide]
- EC50 [1]: 344 nM

SMILES: O=C(NCC1(O)CCOCC1)c1cc(Cc2ccc(Cl)cc2)c2cccn2n1 [Example 6, N-[(4-Hydroxy-tetrahydro-pyran-4-ylmethyl)]-4-(4-chlorobenzyl)-pyrrolo[1,2-b]pyridazine-2-carboxamide]
- EC50 [1]: 3990 nM

SMILES: O=C(N[C@H]1CCCC[C@@H]1O)c1cc(Cc2cccc(F)c2)c2cccn2n1 [Example 7, N-[(1S,2S)-2-Hydroxycyclohexyl]-4-(3-fluorobenzyl)-pyrrolo[1,2-b]pyridazine-2-carboxamide]
- EC50 [1]: 847 nM

SMILES: O=C(NCCO)c1cc(Cc2ccc(Br)cc2)c2cccn2n1 [Example 12, N-[2-hydroxyethyl]-4-(4-bromobenzyl)-pyrrolo[1,2-b]pyridazine-2-carboxamide]
- EC50 [1]: 1550 nM

SMILES: CCC(CO)NC(=O)c1cc(Cc2ccc(Br)cc2)c2cccn2n1 (stereo not drawn) [Example 16, N-[1-Hydroxymethyl-propyl]-4-(4-bromobenzyl)-pyrrolo[1,2-b]pyridazine-2-carboxamide]
- EC50 [1]: 1000 nM

SMILES: CC(C)C(CO)NC(=O)c1cc(Cc2ccc(Br)cc2)c2cccn2n1 (stereo not drawn) [Example 17, N-[1-Hydroxymethyl-2-methylpropyl]-4-(4-bromobenzyl)-pyrrolo[1,2-b]pyridazine-2-carboxamide]
- EC50 [1]: 1900 nM

SMILES: Cn1cc(-c2ccc(Cc3cc(C(=O)NC4CCOCC4)nn4cccc34)cc2)cn1 [Example 21, N-[Tetrahydropyran-4-yl] 4-[4-(1-methyl-1H-pyrazol-4-yl)-benzyl]-pyrrolo[1,2-b]pyridazine-2-carboxamide]
- AUC(0-t) ([2]; intravenous (bolus), 1 mg/kg): 8200 ± 1560 ng·h/mL
- clearance ([2]; intravenous (bolus), 1 mg/kg): 1.9 ± 0.5 mL/min/kg
- half-life ([2]; intravenous (bolus), 1 mg/kg): 8.1 ± 1.4 h
- bioavailability [2]: 58 ± 2%
- AUC(0-t) ([2]; oral (gavage), 3 mg/kg): 14200 ± 493 ng·h/mL
- Cmax ([2]; oral (gavage), 3 mg/kg): 1060 ± 257 ng/mL
- half-life ([2]; oral (gavage), 3 mg/kg): 8.7 ± 3 h

SMILES: Cn1cc(-c2ccc(Cc3cc(C(=O)NCC4(O)CCOCC4)nn4cccc34)cc2)cn1 [Example 22, N-[4-Hydroxy-tetrahydro-pyran-4-ylmethyl] 4-[4-(1-methyl-1H-pyrazol-4-yl)-benzyl]-pyrrolo[1,2-b]pyridazine-2-carboxamide]
- EC50 [1]: 1660 nM

SMILES: O=C(NC1CCOCC1)c1cc(Cc2ccc(-c3cccnc3)cc2)c2cccn2n1 [Example 28, N-[Tetrahydropyran-4-yl] 4-[4-(3-pyridyl)-benzyl]-pyrrolo[1,2-b]pyridazine-2-carboxamide]
- EC50 [1]: 586 nM

SMILES: Cn1cc(-c2ccc(Cc3cc(C(=O)NC4CCOC4)nn4cccc34)cc2)cn1 (stereo not drawn) [Example 32, N-[Tetrahydrofuran-3-yl] 4-[4-(1-methyl-1H-pyrazol-4-yl)-benzyl]-pyrrolo[1,2-b]pyridazine-2-carboxamide]
- EC50 [1]: 2020 nM

SMILES: O=C(NC1CCOC1)c1cc(Cc2ccc(-c3ccncc3)cc2)c2cccn2n1 (stereo not drawn) [Example 33, N-[Tetrahydrofuran-3-yl] 4-[4-(4-pyridyl)-benzyl]-pyrrolo[1,2-b]pyridazine-2-carboxamide]
- EC50 [1]: 2110 nM

SMILES: O=C(NC1CCOC1)c1cc(Cc2ccc(-c3cccnc3)cc2)c2cccn2n1 (stereo not drawn) [Example 34, N-[Tetrahydrofuran-3-yl] 4-[4-(3-pyridyl)-benzyl]-pyrrolo[1,2-b]pyridazine-2-carboxamide]
- EC50 [1]: 2850 nM

SMILES: Cn1cc(-c2ccc(Cc3cc(C(=O)NCC4CCOC4)nn4cccc34)cc2)cn1 (stereo not drawn) [Example 35, N-[Tetrahydrofuran-3-ylmethyl] 4-[4-(1-methyl-1H-pyrazol-4-yl)-benzyl]-pyrrolo[1,2-b]pyridazine-2-carboxamide]
- EC50 [1]: 343 nM

SMILES: CCC(CO)NC(=O)c1cc(Cc2ccc(-c3cnn(C)c3)cc2)c2cccn2n1 (stereo not drawn) [Example 36, N-[l-Hydroxymethyl-propyl] 4-[4-(1-methyl-1H-pyrazol-4-yl)-benzyl]-pyrrolo[1,2-b]pyridazine-2-carboxamide]
- EC50 [1]: 1150 nM

SMILES: CC(C)C(CO)NC(=O)c1cc(Cc2ccc(-c3cnn(C)c3)cc2)c2cccn2n1 (stereo not drawn) [Example 37, N-[1-Hydroxymethyl-2-methylpropyl] 4-[4-(1-methyl-1H-pyrazol-4-yl)-benzyl]-pyrrolo[1,2-b]pyridazine-2-carboxamide]
- EC50 [1]: 411 nM

SMILES: O=C(N[C@H]1CCCC[C@@H]1O)c1cc(Cc2ccc(Cc3ccnc(F)c3)cc2)c2cccn2n1 [Example 50, N-[(1S,2S)-2-Hydroxycyclohexyl]-4-[4-(2-fluoropyridin-4-yl-methyl)-benzyl]-pyrrolo[1,2-b]pyridazine-2-carboxamide]
- EC50 [1]: 518 nM
